Legend:
Gambusia affinis = assay: Toxicity against Gambusia affinis assessed as time required for death at 1 ug/ml after 24 hrs; assay type: organism-based; details: in vivo
[1] = Displacement of [3H]PbTx3 from VSSC in Sprague-Dawley rat brain synaptosomes; assay type: subcellular

SMILES	Activity (Gambusia affinis)	Ki [1]
C=C(C=O)C[C@@H]1C[C@H](O)[C@]2(C)O[C@@H]3C[C@@H]4O[C@@H]5C[C@]6(C)O[C@]7(C)CC[C@@H]8O[C@@H]9C[C@]%10(C)O[C@@H]%11C(C)=CC(=O)O[C@H]%11C[C@H]%10O[C@H]9C[C@@H](C)[C@H]8O[C@H]7C[C@H]6O[C@@]5(C)C/C=C\[C@H]4O[C@H]3C[C@H]2O1 [BREVETOXIN B]	7.5 min	
C=C/C=C\CC[C@H]1O[C@H]2CC[C@@]3(C)O[C@H]4[C@@H](O)C[C@@]5(C)O[C@@H](CC/C=C(C)/C(C)=C/C(OC)OC)[C@@H](C)C[C@@H]5O[C@@H]4C[C@@H]3O[C@@H]2CC[C@@]1(C)O [BREVENAL ACETAL]	Non-toxic	0.68 µM
C=C/C=C\CC[C@H]1O[C@H]2CC[C@@]3(C)O[C@H]4[C@@H](O)C[C@@]5(C)O[C@@H](CC/C=C(C)/C(C)=C/C=O)[C@@H](C)C[C@H]5O[C@@H]4C[C@@H]3O[C@@H]2CC[C@@]1(C)O [BREVENAL]	Non-toxic	1.85 µM
